Measured values as given in PubChem BioAssay (NCI).
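Here, GI50 denotes the concentration required for 50% inhibition of growth. TGI marks complete inhibition of growth.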

Key:
Assay in all cases: growth of human tumour cells (NCI), 384-well format
786-0 renal = test system: 786-0 renal
A498 renal = test system: A498 renal
A549 NSCLC = test system: A549 NSCLC
ACHN renal = test system: ACHN renal
BT-549 breast = test system: BT-549 breast
CAKI-1 renal = test system: CAKI-1 renal
CCRF-CEM leukemia = test system: CCRF-CEM leukemia
COLO 205 colon = test system: COLO 205 colon
DU-145 prostate = test system: DU-145 prostate
EKVX NSCLC = test system: EKVX NSCLC
HCC-2998 colon = test system: HCC-2998 colon
HCT-116 colon = test system: HCT-116 colon
HCT-15 colon = test system: HCT-15 colon
HL-60(TB) leukemia = test system: HL-60(TB) leukemia
HOP-62 NSCLC = test system: HOP-62 NSCLC
HOP-92 NSCLC = test system: HOP-92 NSCLC
HS 578T breast = test system: HS 578T breast
HT29 colon = test system: HT29 colon
IGROV1 ovarian = test system: IGROV1 ovarian
K-562 leukemia = test system: K-562 leukemia
KM12 colon = test system: KM12 colon
LOX IMVI melanoma = test system: LOX IMVI melanoma
M14 melanoma = test system: M14 melanoma
MALME-3M melanoma = test system: MALME-3M melanoma
MCF7 breast = test system: MCF7 breast
MDA-MB-231 breast = test system: MDA-MB-231 breast
MDA-MB-435 melanoma = test system: MDA-MB-435 melanoma
MDA-MB-468 breast = test system: MDA-MB-468 breast
MOLT-4 leukemia = test system: MOLT-4 leukemia
NCI-H226 lung = test system: NCI-H226 lung
NCI-H23 lung = test system: NCI-H23 lung
NCI-H322M lung = test system: NCI-H322M lung
NCI-H460 NSCLC = test system: NCI-H460 NSCLC
NCI-H522 lung = test system: NCI-H522 lung
NCI/ADR-RES ovarian = test system: NCI/ADR-RES ovarian
OVCAR-3 ovarian = test system: OVCAR-3 ovarian
OVCAR-4 ovarian = test system: OVCAR-4 ovarian
OVCAR-5 ovarian = test system: OVCAR-5 ovarian
OVCAR-8 ovarian = test system: OVCAR-8 ovarian
PC-3 prostate = test system: PC-3 prostate
RPMI-8226 leukemia = test system: RPMI-8226 leukemia
RXF 393 renal = test system: RXF 393 renal
SF-268 CNS = test system: SF-268 CNS
SF-295 CNS = test system: SF-295 CNS
SF-539 CNS = test system: SF-539 CNS
SK-MEL-28 melanoma = test system: SK-MEL-28 melanoma
SK-MEL-5 melanoma = test system: SK-MEL-5 melanoma
SK-OV-3 ovarian = test system: SK-OV-3 ovarian
SN12C renal = test system: SN12C renal
SNB-19 CNS = test system: SNB-19 CNS
SNB-75 CNS = test system: SNB-75 CNS
SW-620 colon = test system: SW-620 colon
T-47D breast = test system: T-47D breast
TK-10 renal = test system: TK-10 renal
U251 glioblastoma = test system: U251 glioblastoma
UACC-257 melanoma = test system: UACC-257 melanoma
UACC-62 melanoma = test system: UACC-62 melanoma
UO-31 renal = test system: UO-31 renal

Q: Which results are given for `NC(=O)[C@H]1CCN(c2ncnc(N)c2F)C[C@@H]1N1CCC[C@@H](Nc2cc(Cl)cc(C(F)(F)F)c2)C1=O`?
A: GI50 (786-0 renal): 15.6 µM; TGI (786-0 renal): 53.4 µM; GI50 (A498 renal): 12.5 µM; TGI (A498 renal): 29.2 µM; GI50 (A549 NSCLC): 10.3 µM; TGI (A549 NSCLC): 25 µM; GI50 (ACHN renal): 7.86 µM; TGI (ACHN renal): 25.9 µM; GI50 (BT-549 breast): 15.6 µM; TGI (BT-549 breast): 31.6 µM; GI50 (CAKI-1 renal): 11.5 µM; TGI (CAKI-1 renal): 54.3 µM; GI50 (CCRF-CEM leukemia): 10.2 µM; TGI (CCRF-CEM leukemia): 22.1 µM; GI50 (COLO 205 colon): 7.06 µM; TGI (COLO 205 colon): 21.5 µM; GI50 (DU-145 prostate): 15.6 µM; TGI (DU-145 prostate): 53.1 µM; GI50 (EKVX NSCLC): 12.2 µM; TGI (EKVX NSCLC): 39.4 µM; GI50 (HCC-2998 colon): 13.6 µM; TGI (HCC-2998 colon): 28.5 µM; GI50 (HCT-116 colon): 9.04 µM; TGI (HCT-116 colon): 22 µM; GI50 (HCT-15 colon): 8.54 µM; TGI (HCT-15 colon): 32.7 µM; GI50 (HL-60(TB) leukemia): 10.8 µM; TGI (HL-60(TB) leukemia): 22.7 µM; GI50 (HOP-62 NSCLC): 13.6 µM; TGI (HOP-62 NSCLC): 35.8 µM; GI50 (HOP-92 NSCLC): 13.8 µM; TGI (HOP-92 NSCLC): 33.7 µM; GI50 (HS 578T breast): 17.4 µM; TGI (HS 578T breast): 39.3 µM; GI50 (HT29 colon): 7.05 µM; TGI (HT29 colon): 22 µM; GI50 (IGROV1 ovarian): 2340 nM; TGI (IGROV1 ovarian): 17.4 µM; GI50 (K-562 leukemia): 8.33 µM; TGI (K-562 leukemia): 20.9 µM; GI50 (KM12 colon): 4.29 µM; TGI (KM12 colon): 30.7 µM; GI50 (LOX IMVI melanoma): 11.2 µM; TGI (LOX IMVI melanoma): 23.4 µM; GI50 (M14 melanoma): 10.9 µM; TGI (M14 melanoma): 24.4 µM; GI50 (MALME-3M melanoma): 14.5 µM; TGI (MALME-3M melanoma): 28.5 µM; GI50 (MCF7 breast): 14.5 µM; TGI (MCF7 breast): 36.3 µM; GI50 (MDA-MB-231 breast): 10.7 µM; TGI (MDA-MB-231 breast): 39.7 µM; GI50 (MDA-MB-435 melanoma): 19.9 µM; TGI (MDA-MB-435 melanoma): 67.1 µM; GI50 (MDA-MB-468 breast): 2210 nM; TGI (MDA-MB-468 breast): 11.9 µM; GI50 (MOLT-4 leukemia): 1850 nM; TGI (MOLT-4 leukemia): 6.1 µM; GI50 (NCI-H226 lung): 10.9 µM; TGI (NCI-H226 lung): 34.5 µM; GI50 (NCI-H23 lung): 14.8 µM; TGI (NCI-H23 lung): 32.2 µM; GI50 (NCI-H322M lung): 21.3 µM; TGI (NCI-H322M lung): 52 µM; GI50 (NCI-H460 NSCLC): 13.4 µM; TGI (NCI-H460 NSCLC): 27.1 µM; GI50 (NCI-H522 lung): 5.3 µM; TGI (NCI-H522 lung): 17.9 µM; GI50 (NCI/ADR-RES ovarian): 47.6 µM; TGI (NCI/ADR-RES ovarian): > 100 µM; GI50 (OVCAR-3 ovarian): 16.3 µM; TGI (OVCAR-3 ovarian): 35.4 µM; GI50 (OVCAR-4 ovarian): 19.9 µM; TGI (OVCAR-4 ovarian): 64.8 µM; GI50 (OVCAR-5 ovarian): 12.9 µM; TGI (OVCAR-5 ovarian): 40.2 µM; GI50 (OVCAR-8 ovarian): 21.5 µM; TGI (OVCAR-8 ovarian): 73.6 µM; GI50 (PC-3 prostate): 11.6 µM; TGI (PC-3 prostate): 46.8 µM; GI50 (RPMI-8226 leukemia): 11 µM; TGI (RPMI-8226 leukemia): 23.1 µM; GI50 (RXF 393 renal): 3.44 µM; TGI (RXF 393 renal): 13.4 µM; GI50 (SF-268 CNS): 3.26 µM; TGI (SF-268 CNS): 10.5 µM; GI50 (SF-295 CNS): 14.5 µM; TGI (SF-295 CNS): 31.6 µM; GI50 (SF-539 CNS): 14.5 µM; TGI (SF-539 CNS): 33.8 µM; GI50 (SK-MEL-28 melanoma): 15.4 µM; TGI (SK-MEL-28 melanoma): 32.5 µM; GI50 (SK-MEL-5 melanoma): 9.85 µM; TGI (SK-MEL-5 melanoma): 21.6 µM; GI50 (SK-OV-3 ovarian): 6.43 µM; TGI (SK-OV-3 ovarian): 40.1 µM; GI50 (SN12C renal): 8.02 µM; TGI (SN12C renal): 38.4 µM; GI50 (SNB-19 CNS): 30 µM; TGI (SNB-19 CNS): > 100 µM; GI50 (SNB-75 CNS): 12.5 µM; TGI (SNB-75 CNS): 34.2 µM; GI50 (SW-620 colon): 15.2 µM; TGI (SW-620 colon): 31.9 µM; GI50 (T-47D breast): 6.32 µM; TGI (T-47D breast): 23.2 µM; GI50 (TK-10 renal): 14.8 µM; TGI (TK-10 renal): 37.5 µM; GI50 (U251 glioblastoma): 17.2 µM; TGI (U251 glioblastoma): 60 µM; GI50 (UACC-257 melanoma): 14.9 µM; TGI (UACC-257 melanoma): 28.5 µM; GI50 (UACC-62 melanoma): 6.7 µM; TGI (UACC-62 melanoma): 19.7 µM; GI50 (UO-31 renal): 20.3 µM; TGI (UO-31 renal): 57.4 µM
